Laboratory results from patent US20240287124A1, “PRODRUGS OF 4'-SUBSTITUTED NUCLEOSIDE REVERSE TRANSCRIPTASE INHIBITORS” (Merck Sharp & Dohme LLC, priority 2023, published 2024).
pIC50: −log10 of the molar value. Converted amounts (≈) assume the structure as drawn. Like-named read-outs stand apart in the source and are kept apart here.

Key:
[1] = Aqueous solubility in PBS, pH 7.4; assay type: physicochemical; details: pH 7.4, aqueous buffer, thermodynamic from solid, pH 7.4 phosphate buffered saline, 24 hours, amorphous or crystalline material, read-out: Aqu. Solubility
How it was run: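 Excess solid suspended at 0.5 mg/mL in PBS pH 7.4 and stirred 24 hours. Filtrate (0.45 μm) diluted 1:1 with ACN:H2O and quantified by UPLC against a standard curve; residual solid phase checked by XRPD and PLM.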

[2] = tested on: HIV-1 wild-type (R8) virus; experiment: Viral KINetics in Green cells (VIKING) assay, HIV-1 replication in MT4-GFP reporter cells; assay type: cell-based; details: Human immunodeficiency virus 1, 10% normal human serum, MT4-GFP cells, HIV-1 wild-type (R8); read-out: Viking (10% NHS), IC50
How it was run: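 Compounds in 3-fold, 10-point series (typical 4 μM-0.2 nM) in 10% normal human serum received MT4 GFP-reporter T cells pre-infected overnight with wild-type R8 virus (MOI ~0.01). Ratio of GFP-positive cells at 72 vs 48 h defined replication; IC50 from nonlinear 4-parameter dose-response fitting.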

[3] = Plasma stability in frozen human plasma; assay type: in vitro ADME; details: frozen human plasma at 37° C., 0-3 hr; read-out: T1/2 Human Plasma (converted)
Protocol: Plasma stability of the compounds was evaluated in frozen human plasma at 37° C. in a 10% CO2 environment. The stability of the analyte was assessed by determining the percentage of drug loss over the course of 0, 0.25, 0.5, 1, and 3 hr. In addition, the appearance of Compound A was determined for the same time course. Percent of drug loss as based on ratio with internal standard. Analyte concentrations were measured by LC/MS/MS. Linear regression was performed with log transformed percent of average TO values and linear time values. The elimination rate constant (ke) was calculated from the slope of this regression line and the half-life (T½) calculated based on the elimination rate constant.

solubility at 24 h ([1]; phosphate buffered saline) | half-life [3] | SMILES | pIC50 [2] | solubility at 24 h [1]
< 1 µg/mL | 2.2 h | C#C[C@]1(COC(=O)C(CC)CC)O[C@@H](n2ccc3c(N)nc(Cl)nc32)C[C@@H]1OC(=O)C(CC)CC [Example 44, (2R,3S,5R)-5-(4-amino-2-chloro-7H-pyrrolo[2,3-d]pyrimidin-7-yl)-2-(((2-ethylbutanoyl)oxy)methyl)-2-ethynyltetrahydrofuran-3-yl 2-ethylbutanoate] | 6.45 | 
42 µg/mL (≈ 106 µM) | 19.1 h | C#C[C@]1(CO)O[C@@H](n2ccc3c(N)nc(Cl)nc32)C[C@@H]1OC(=O)OC(C)C [Example 1, (2R,3S,5R)-5-(4-amino-2-chloro-7H-pyrrolo[2,3-d]pyrimidin-7-yl)-2-ethynyl-2-(hydroxymethyl)tetrahydrofuran-3-yl isopropyl carbonate] | 7.13 | 
< 1 µg/mL | 1.1 h | C#C[C@]1(COC(=O)c2ccccc2)O[C@@H](n2ccc3c(N)nc(Cl)nc32)C[C@@H]1OC(=O)c1ccccc1 [Example 6, (2R,3S,5R)-5-(4-amino-2-chloro-7H-pyrrolo[2,3-d]pyrimidin-7-yl)-2-((benzoyloxy)methyl)-2-ethynyltetrahydrofuran-3-yl benzoate] | 7.36 | 
45 µg/mL (≈ 111 µM) | 19.4 h | C#C[C@]1(CO)O[C@@H](n2ccc3c(N)nc(Cl)nc32)C[C@@H]1OC(=O)C(CC)CC [Example 45, (2R,3S,5R)-5-(4-amino-2-chloro-7H-pyrrolo[2,3-d]pyrimidin-7-yl)-2-ethynyl-2-(hydroxymethyl)tetrahydrofuran-3-yl 2-ethylbutanoate] | 6.84 | 
282 µg/mL (≈ 693 µM) | 1.9 h | C#C[C@]1(COC(=O)C(CC)CC)O[C@@H](n2ccc3c(N)nc(Cl)nc32)C[C@@H]1O [Example 40, ((2R,3S,5R)-5-(4-amino-2-chloro-7H-pyrrolo[2,3-d]pyrimidin-7-yl)-2-ethynyl-3-hydroxytetrahydrofuran-2-yl)methyl 2-ethylbutanoate] | 8.26 | 
27 µg/mL (≈ 68.7 µM) | 16.7 h | C#C[C@]1(CO)O[C@@H](n2ccc3c(N)nc(Cl)nc32)C[C@@H]1OC(=O)CCCC [Example 3, (2R,3S,5R)-5-(4-amino-2-chloro-7H-pyrrolo[2,3-d]pyrimidin-7-yl)-2-ethynyl-2-(hydroxymethyl)tetrahydrofuran-3-yl pentanoate] | 8.43 | 
< 1 µg/mL | 0.036 h | C#C[C@]1(COC(=O)CCCC)O[C@@H](n2ccc3c(N)nc(Cl)nc32)C[C@@H]1OC(=O)CCCC [Example 7, (2R,3S,5R)-5-(4-amino-2-chloro-7H-pyrrolo[2,3-d]pyrimidin-7-yl)-2-ethynyl-2-((pentanoyloxy)methyl)tetrahydrofuran-3-yl pentanoate] | 8.54 | 
113 µg/mL (≈ 267 µM) | < 0.25 h | C#C[C@]1(COC(=O)OCCCCC)O[C@@H](n2ccc3c(N)nc(Cl)nc32)C[C@@H]1O [Example 14, ((2R,3S,5R)-5-(4-amino-2-chloro-7H-pyrrolo[2,3-d]pyrimidin-7-yl)-2-ethynyl-3-hydroxytetrahydrofuran-2-yl)methyl pentyl carbonate] | 8.60 | 
55 µg/mL (≈ 140 µM) | < 0.25 h | C#C[C@]1(COC(=O)CCCC)O[C@@H](n2ccc3c(N)nc(Cl)nc32)C[C@@H]1O [Example 15, ((2R,3S,5R)-5-(4-amino-2-chloro-7H-pyrrolo[2,3-d]pyrimidin-7-yl)-2-ethynyl-3-hydroxytetrahydrofuran-2-yl)methyl pentanoate] | 8.64 | 
136 µg/mL (≈ 359 µM) | 48.4 h | C#C[C@]1(CO)O[C@@H](n2ccc3c(N)nc(Cl)nc32)C[C@@H]1OC(=O)C(C)C [Example 2, (2R,3S,5R)-5-(4-amino-2-chloro-7H-pyrrolo[2,3-d]pyrimidin-7-yl)-2-ethynyl-2-(hydroxymethyl)tetrahydrofuran-3-yl isobutyrate] | 7.39 | 
2.9 µg/mL (≈ 6.76 µM) | 0.41 h | C#C[C@]1(CO)O[C@@H](n2ccc3c(N)nc(Cl)nc32)C[C@@H]1OC(=O)Oc1ccccc1 [Example 12, (2R,3S,5R)-5-(4-amino-2-chloro-7H-pyrrolo[2,3-d]pyrimidin-7-yl)-2-ethynyl-2-(hydroxymethyl)tetrahydrofuran-3-yl phenyl carbonate] | 8.54 | 
< 1 µg/mL | 57.7 h | C#C[C@]1(CO)O[C@@H](n2ccc3c(N)nc(Cl)nc32)C[C@@H]1OC(=O)c1ccccc1 [Example 5, (2R,3S,5R)-5-(4-amino-2-chloro-7H-pyrrolo[2,3-d]pyrimidin-7-yl)-2-ethynyl-2-(hydroxymethyl)tetrahydrofuran-3-yl benzoate] | 7.46 | 
351 µg/mL (≈ 889 µM) | 0.028 h | C#C[C@]1(COC(=O)OC(C)C)O[C@@H](n2ccc3c(N)nc(Cl)nc32)C[C@@H]1O [Example 23, ((2R,3S,5R)-5-(4-amino-2-chloro-7H-pyrrolo[2,3-d]pyrimidin-7-yl)-2-ethynyl-3-hydroxytetrahydrofuran-2-yl)methyl isopropyl carbonate] | 8.66 | 
< 1 µg/mL | < 0.25 h | C#C[C@]1(COC(=O)C(C)C)O[C@@H](n2ccc3c(N)nc(Cl)nc32)C[C@@H]1OC(=O)C(C)C [Example 42, (2R,3S,5R)-5-(4-amino-2-chloro-7H-pyrrolo[2,3-d]pyrimidin-7-yl)-2-ethynyl-2-((isobutyryloxy)methyl)tetrahydrofuran-3-yl isobutyrate] | 7.96 | 
< 1 µg/mL |  | C#C[C@]1(CO)O[C@@H](n2ccc3c(NC(=O)CCCCCCCCCCC)nc(Cl)nc32)C[C@@H]1O [Example 21, N-(2-chloro-7-((2R,4S,5R)-5-ethynyl-4-hydroxy-5-(hydroxymethyl)tetrahydrofuran-2-yl)-7H-pyrrolo[2,3-d]pyrimidin-4yl)dodecanamide] | 7.74 | 
23 µg/mL (≈ 51 µM) |  | C#C[C@]1(COC(=O)CCCC)O[C@@H](n2ccc3c(N)nc(Cl)nc32)C[C@@H]1OC(=O)OC [Example 189] | 7.72 | 
247 µg/mL (≈ 604 µM) |  | C#C[C@]1(COCOC(=O)C(C)C)O[C@@H](n2ccc3c(N)nc(Cl)nc32)C[C@@H]1O [Example 54, (((2R,3S,5R)-5-(4-amino-2-chloro-7H-pyrrolo[2,3-d]pyrimidin-7-yl)-2-ethynyl-3-hydroxytetrahydrofuran-2-yl)methoxy)methyl isobutyrate] | 8.82 | 
2.4 µg/mL (≈ 5.52 µM) |  | C#C[C@]1(CO)O[C@@H](n2ccc3c(N)nc(Cl)nc32)C[C@@H]1OC(=O)C(CCC)CCC [Example 52, (2R,3S,5R)-5-(4-amino-2-chloro-7H-pyrrolo[2,3-d]pyrimidin-7-yl)-2-ethynyl-2-(hydroxymethyl)tetrahydrofuran-3-yl 2-propylpentanoate] | 6.47 | 
224 µg/mL (≈ 614 µM) |  | C#C[C@]1(CO)O[C@@H](n2ccc3c(N)nc(Cl)nc32)C[C@@H]1OC(=O)CC [Example 65, (2R,3S,5R)-5-(4-amino-2-chloro-7H-pyrrolo[2,3-d]pyrimidin-7-yl)-2-ethynyl-2-(hydroxymethyl)tetrahydrofuran-3-yl propionate] | 7.59 | 
< 1 µg/mL |  | C#C[C@]1(COC(=O)OCCCCCCCC)O[C@@H](n2ccc3c(N)nc(Cl)nc32)C[C@@H]1O [Example 39, ((2R,3S,5R)-5-(4-amino-2-chloro-7H-pyrrolo[2,3-d]pyrimidin-7-yl)-2-ethynyl-3-hydroxytetrahydrofuran-2-yl)methyl octyl carbonate] | 8.52 | 
2 µg/mL (≈ 4.07 µM) |  | C#C[C@]1(CO)O[C@@H](n2ccc3c(N)nc(Cl)nc32)C[C@@H]1OC(=O)CCCCCCCCCCC [Example 25, (2R,3S,5R)-5-(4-amino-2-chloro-7H-pyrrolo[2,3-d]pyrimidin-7-yl)-2-ethynyl-2-(hydroxymethyl)tetrahydrofuran-3-yl dodecanoate] | 8.46 | 
< 1 µg/mL |  | C#C[C@]1(COC(=O)OCC23CC4CC(CC(C4)C2)C3)O[C@@H](n2ccc3c(N)nc(Cl)nc32)C[C@@H]1O [Example 115] | 8.24 | 
365 µg/mL (≈ 897 µM) |  | C#C[C@]1(COC(=O)CC(C)(C)C)O[C@@H](n2ccc3c(N)nc(Cl)nc32)C[C@@H]1O [Example 89] | 7.54 | 
< 1 µg/mL |  | C#C[C@]1(COCOC(=O)OCCCCCCCCCCCC)O[C@@H](n2ccc3c(N)nc(Cl)nc32)C[C@@H]1O [Example 134] | 8.43 | 

SMILES | solubility at 24 h ([1]; phosphate buffered saline) | half-life [3] | pIC50 [2] | solubility at 24 h [1]
C#C[C@]1(CO[P@@](=O)(N[C@@H](C)C(=O)OC(C)C)Oc2ccccc2)O[C@@H](n2ccc3c(N)nc(Cl)nc32)C[C@@H]1O [Example 8, Isopropyl ((S)-(((2R,3S,5R)-5-(4-amino-2-chloro-7H-pyrrolo[2,3-d]pyrimidin-7-yl)-2-ethynyl-3-hydroxytetrahydrofuran-2-yl)methoxy)(phenoxy)phosphoryl)-L-alaninate] |  | 13.3 h | 7.38 | 304 µg/mL (≈ 526 µM)
